Experimental data: PubChem BioAssay (NCI)
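Values below derive from 48-hour exposures of cells grown in 96-well plates, with endpoints linearly interpolated between the two concentrations bracketing the appropriate inhibition level. GI50 is the concentration that inhibits growth by half. TGI denotes the concentration required for complete inhibition of growth.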

Assays:
Assay in all cases: inhibition of tumour cell growth, NCI panel, 48 h
[1] = tested on: A549 NSCLC
[2] = tested on: SN12C renal
[3] = tested on: NCI-H23 lung
[4] = tested on: HCT-15 colon
[5] = tested on: KM12 colon
[6] = tested on: IGROV1 ovarian
[7] = tested on: UACC-257 melanoma
[8] = tested on: SK-MEL-5 melanoma
[9] = tested on: M14 melanoma
[10] = tested on: T-47D breast

Row | Compound | TGI [1] | TGI [2] | TGI [3] | TGI [4] | TGI [5] | TGI [6] | TGI [7] | TGI [8] | TGI [9] | GI50 [1] | GI50 [2] | GI50 [4] | GI50 [5] | GI50 [6] | GI50 [7] | GI50 [8] | GI50 [9] | GI50 [3] | GI50 [10] | TGI [10]
1 | C=C1CC(CCCl)(c2ccccc2)OC1=O (configuration not stated) | > 100 µM | > 62.7 µM | > 100 µM | 39.2 µM | > 100 µM | > 100 µM | > 75.1 µM | > 100 µM | 38.6 µM |  |  |  |  |  |  |  |  |  |  | 
2 | CCCNCc1nc2ccc(Br)cc2c(=O)n1CCC | 35 µM | 26.7 µM | 26.2 µM | 27.4 µM | 29.3 µM | 29.7 µM | 26 µM | 21.6 µM | 27.4 µM |  |  |  |  |  |  |  |  |  |  | 
3 | N=C(N)SCCc1cn2ccccc2n1 | > 100 µM | > 100 µM | > 100 µM | > 100 µM | > 100 µM |  | > 100 µM | > 100 µM | > 100 µM |  |  |  |  |  |  |  |  |  |  | 
4 | Cc1ccccc1C(=O)Oc1ccc(Oc2ccccc2)cc1 | > 100 µM | > 100 µM | > 100 µM | > 100 µM | > 100 µM | > 100 µM | > 100 µM | > 100 µM | > 100 µM |  |  |  |  |  |  |  |  |  |  | 
5 | Nc1ccc(Nc2nc(F)nc(-c3c4ccccc4c4n3CCS4)n2)cc1 | 31.2 µM | 33.4 µM | 32.7 µM | 25.5 µM | 26.5 µM | 29.9 µM |  | 25.8 µM | 31.6 µM |  |  |  |  |  |  |  |  |  |  | 
6 | N=C(c1ccccc1)N(O)C1CCCCC1 | > 100 µM | > 100 µM | > 100 µM |  | > 100 µM |  | > 100 µM | > 100 µM | > 100 µM |  |  |  |  |  |  |  |  |  |  | 
7 | O=C(Nc1c(-c2nc3ccccc3[nH]2)sc(=S)n1-c1ccccc1)c1ccccc1 | > 100 µM | > 100 µM | > 100 µM | > 100 µM | > 100 µM | > 100 µM | > 100 µM | > 100 µM | > 100 µM |  |  |  |  |  |  |  |  |  |  | 
8 | O=C(OCCOCBr)c1ccccc1 | > 100 µM | > 100 µM | > 100 µM | > 100 µM | > 100 µM | > 100 µM | > 100 µM | > 100 µM | > 100 µM |  |  |  |  |  |  |  |  |  |  | 
9 | CCCCC(=O)N/N=C/c1cc(I)cc(I)c1O | 22.4 µM | 26.1 µM |  | > 100 µM | 53.8 µM | 17.2 µM | 10.4 µM | 15.3 µM | 14.8 µM | 3.63 µM | 3.77 µM | 0.897 µM | 3.74 µM | 2.32 µM | 2.56 µM | 3.22 µM | 2.7 µM |  |  | 
10 | O=C(COc1cccc(/C=C2\COc3ccccc3C2=O)c1)Nc1nccs1 | 6.22 µM | 5.25 µM | 3.94 µM | 10.2 µM | 3.15 µM |  | 5.28 µM | 19.5 µM | 3.71 µM | 2.41 µM | 2.08 µM | 3.11 µM | 1.71 µM |  | 2.06 µM | 5.27 µM | 1.85 µM | 1.95 µM | 3.13 µM | 12.5 µM
11 | Nc1ccc2c(c1)C(=O)c1c(F)cccc1-2 | > 100 µM | > 100 µM | > 100 µM | > 100 µM | > 100 µM |  | > 100 µM | 95.1 µM | > 100 µM |  |  |  |  |  |  |  |  |  |  | > 100 µM
12 | Cn1c(CCC#N)nc2ccc(Br)cc2c1=O | > 100 µM | > 100 µM | > 100 µM | > 100 µM | > 100 µM | > 100 µM | > 100 µM | > 100 µM | > 100 µM |  |  |  |  |  |  |  |  |  |  | 
13 | COc1ccc2[nH]cc(-c3nc(-c4cn(C)c5ccncc45)cs3)c2c1 | 3.43 µM | 3.08 µM | 4.12 µM | 3.92 µM | 3.52 µM | 3.54 µM | 33.3 µM | 3.04 µM | 3.24 µM | 1.79 µM | 1.64 µM | 1.88 µM | 1.87 µM | 1.93 µM | 16.7 µM | 1.64 µM | 1.75 µM | 2.12 µM |  | 
14 | COc1cc2c(c(OC)c1OC)-c1[nH]ncc1CC2 | > 100 µM | > 100 µM | > 100 µM | > 100 µM | > 100 µM | > 100 µM | > 100 µM | > 100 µM | > 100 µM |  |  |  |  |  |  |  |  |  |  | 
15 | CCOC(=O)/N=C(\N)SCc1ccccc1 | > 100 µM | > 100 µM | > 100 µM | > 100 µM | > 100 µM | > 100 µM | > 100 µM | > 100 µM | > 100 µM |  |  |  |  |  |  |  |  |  |  | 
16 | CC(C)C(=O)N[C@@H](C)C(=O)N(Cc1ccc2ccccc2c1)N=O | > 100 µM | > 100 µM |  | > 100 µM |  | > 100 µM | > 100 µM | > 100 µM | > 100 µM |  |  |  |  |  |  |  |  |  |  | 
17 | O=C(N/N=C1\CCc2ccccc2C1)N/N=C1\CCc2ccccc2C1 | > 10 µM | > 10 µM | > 10 µM | > 10 µM | > 10 µM |  | > 10 µM |  | > 10 µM |  |  |  |  |  |  |  |  |  |  | > 10 µM
18 | O=c1/c(=C/c2ccc(Cl)cc2Cl)sc2nc3ccccc3n12 | > 100 µM | > 100 µM | > 100 µM | > 100 µM | > 100 µM | > 100 µM | > 100 µM | > 100 µM | > 100 µM |  |  |  |  |  |  |  |  |  |  | 
19 | ClCCN(CCCl)c1ccc(-n2cnc3c(Cl)ncnc32)cc1 | 29.7 µM | 10.2 µM | 3.79 µM | 3.65 µM | 19.5 µM |  | 5.16 µM | 5.94 µM | 3.88 µM | 12.5 µM | 3.17 µM | 1.79 µM | 6.16 µM |  | 2.24 µM | 2.36 µM | 1.96 µM | 2.02 µM | 3.28 µM | 12.9 µM
20 | C(=C\c1csnn1)/c1cccnc1 | > 100 µM | > 100 µM | > 100 µM | > 100 µM | > 100 µM |  | > 100 µM |  | > 100 µM |  |  |  |  |  |  |  |  |  |  | 
21 | O=C1Nc2ccccc2C1Cc1ccccc1 (configuration not stated) | > 100 µM |  | > 100 µM | > 100 µM | > 100 µM | > 100 µM | > 100 µM | > 100 µM | > 100 µM |  |  |  |  |  |  |  |  |  |  | > 100 µM
22 | O=c1c2ccc3cccc4c(=O)cc(c5ccccc15)-c2c34 | > 100 µM | > 100 µM | > 100 µM | > 100 µM | > 100 µM | > 100 µM | > 100 µM | > 100 µM | > 100 µM |  |  |  |  |  |  |  |  |  |  | 
23 | COc1cc(-c2[nH]ccc2Cl)oc1C1=C2N=C3C=C2C(C(C)C)C1CCCCCCCC3 (configuration not stated) | 2.88 µM | 3 µM | 2.05 µM | 1.86 µM | 2.83 µM | 2.71 µM | 3.18 µM | 0.813 µM | 1.51 µM |  |  |  |  |  |  |  |  |  |  | 
